The values below come from ChEMBL document CHEMBL4043145, “Pyridine-pyrimidine amides that prevent HGF-induced epithelial scattering by two distinct mechanisms” (Bioorg Med Chem Lett, 2017).

Structures are written as SMILES. pEC50: −log10 of the molar value. Bounds are passed on as bounds.

One test concerns A2780. As to the kind of experiment: Antiproliferative activity against human A2780 cells. In kind it is functional, cell-based.
The test system of a further test is MCF7. The test can be described thus: Antiproliferative activity against human MCF7 cells at 10 uM relative to control. The test is classed as functional, cell-based.
The subject of another test is MDCK-II. As to the kind of experiment: Antimigratory activity against MDCK2 cells assessed as inhibition of HGF-induced cell scattering at 1 uM pretreated for 18 hrs followed by HGF addition measured after 20 to 24 hrs by crystal violet staining-based assay relative to control. The test is classed as functional. The conditions noted are these: Canis lupus familiaris.

By pEC50 is commonly meant the EC50 on a negative log10 scale, so that one unit is a factor of ten. A low value points to a large EC50. For `O=C(Nc1ccc(-c2ccco2)cn1)c1cncnc1`, the results for the pEC50 in the test on A2780 and in the test on MCF7 were 6.71 and 6.22, respectively. One may read the inhibition as the relative decrease from the control value, in per cent. With `Cc1cc(NC(=O)c2cccc([N+](=O)[O-])c2)ccc1O`, in the test with MDCK-II, the inhibition at 1 µM is 34.6%. With `Cc1nc(NC(=O)c2cccc([N+](=O)[O-])c2)cnc1Br`, in the test on MDCK-II, the inhibition at 1 µM was -33%. Consider `Cc1nc(NC(=O)c2cncnc2)ccc1Cl`, for which, in the test on MDCK-II, the inhibition at 1 µM is -18%. Turning to `O=C(Nc1ccc(-c2ccccc2)cn1)c1cnccn1`, the pEC50 with A2780 is 6.99; with MCF7, 6.50. Regarding `O=C(Nc1ccc(-c2ccccc2)cn1)c1cccnc1`, the pEC50 in the test on A2780 is 7.11; in the test on MCF7 it was 6.66. As for `O=C(Nc1ccc(-c2ccccc2)cn1)c1nccnc1-c1ccccc1`, the pEC50 in the test on A2780 and in the test with MCF7 was under 5.00 each time. Consider `O=C(Nc1ccc2ccccc2n1)c1cncc([N+](=O)[O-])c1`, for which, in the test on MDCK-II, the inhibition at 1 µM was -63%.

Turning to `O=C(Nc1cscn1)c1cncnc1`, the inhibition at 1 µM in the test with MDCK-II was -103%. Regarding `O=C(Nc1ccc(C2CC2)cn1)c1cncnc1`, the pEC50 is 6.33 with A2780 and 6.11 in the test with MCF7.

`Cc1nc(NC(=O)c2cnco2)ccc1I`: the inhibition at 1 µM in the test with MDCK-II is 32%. With `O=C(Nc1cnc(-c2ccccc2)cn1)c1cncnc1`, the values for the pEC50 in the test with A2780 and with MCF7 were under 5.00 and 5.08, respectively. As to `O=C(COc1cncnc1)Nc1ccc(-c2ccccc2)cn1`, the pEC50 in the test on A2780 and with MCF7 was under 5.00 each time. For the compound `Cc1nc(NC(=O)c2cnc3cccnc3c2)cnc1Br`, the inhibition at 1 µM in the test on MDCK-II is -25%. For the compound `O=C(Nc1ccc2ccccc2n1)c1cnc2cccnc2c1`, the inhibition at 1 µM with MDCK-II was -69%.

Consider `Cc1ncncc1C(=O)Nc1ccc(-c2ccccc2)cn1`, for which the pEC50 with A2780 and in the test on MCF7 was under 5.00 each time. In the case of `Cc1nc(NC(=O)c2cccc(C(F)(F)F)c2)ccc1I`, the inhibition at 1 µM with MDCK-II came to 72%. `O=C(Nc1ccc(-c2ccccc2Cl)cn1)c1cncnc1`: the values for the pEC50 with A2780 and in the test with MCF7 were 6.59 and 6.90, respectively. Take `O=C(Nc1ccc(-c2cccnc2)cn1)c1cncnc1`: the pEC50 in the test with A2780 is 5.23; in the test on MCF7, 5.16. Turning to `Cc1cc(C)nc(NC(=O)c2cccc([N+](=O)[O-])c2)c1`, the inhibition at 1 µM in the test on MDCK-II was determined as 52.5%. With `O=C(Nc1ccc(-c2ccccc2)cn1)c1cnco1`, the inhibition at 1 µM with MDCK-II is -10%. With `Cc1cc(NC(=O)c2cccc([N+](=O)[O-])c2C)c(C)cc1I`, in the test with MDCK-II, the inhibition at 1 µM was found to be 36.1%. Consider `O=C(Nc1ccc(-c2ccoc2)cn1)c1cncnc1`, for which the pEC50 is 6.57 with A2780 and 6.69 in the test on MCF7. As for `Cc1nc(NC(=O)c2cccc(C(F)(F)F)c2)cnc1Br`, the inhibition at 1 µM in the test with MDCK-II was -6%. As for `CCOc1ccc(C(=O)Nc2cccc(C)n2)cc1[N+](=O)[O-]`, the inhibition at 1 µM in the test with MDCK-II came to 31.7%. For the compound `O=C(Cc1cncnc1)Nc1ccc(-c2ccccc2)cn1`, the negative logarithm of the EC50 (pEC50) with A2780 and in the test on MCF7 was under 5.00 throughout. Take `O=C(Nc1cncnc1)c1ccc(-c2ccccc2)cn1`: the pEC50 with A2780 and in the test on MCF7 was under 5.00 throughout. As to `Cc1nc(NC(=O)c2cccc([N+](=O)[O-])c2)ccc1Cl`, the inhibition at 1 µM in the test with MDCK-II is -5%. For the compound `O=C(Nc1ccc(-c2ccsc2)cn1)c1cncnc1`, the pEC50 was 7.22 in the test with A2780 and 7.18 in the test with MCF7. Regarding `Cc1nc(NC(=O)c2cnco2)ccc1Cl`, in the test with MDCK-II, the inhibition at 1 µM is -35%. For the compound `O=C(Nc1ccc(-c2ccccc2)cn1)c1cncc([N+](=O)[O-])c1`, in the test with MDCK-II, the inhibition at 1 µM is -32%. `Cc1cc(NC(=O)c2cccc([N+](=O)[O-])c2)ccc1I`: the inhibition at 1 µM in the test on MDCK-II stood at 53.1%. Same read-out and setting: then `Cc1nc(NC(=O)c2cccc([N+](=O)[O-])c2)ccc1Br`, with 88.6%. In the case of `CNc1ncc(C(=O)Nc2ccc(-c3ccccc3)cn2)cn1`, the results for the pEC50 in the test on A2780 and in the test with MCF7 were 7.31 and 6.83, respectively. In the case of `Cc1nc(NC(=O)c2cncc([N+](=O)[O-])c2)ccc1Cl`, the inhibition at 1 µM with MDCK-II was -20%.

With `O=C(Nc1ccc(-c2ccccc2)cn1)c1ncccn1`, the pEC50 with A2780 and in the test on MCF7 was under 5.00 throughout. On to `CCOc1ccc(C(=O)Nc2ccc(I)cn2)cc1[N+](=O)[O-]`, for which, in the test with MDCK-II, the inhibition at 1 µM is 69.9%. Take `O=C(Nc1ccc(-c2ccccc2)cn1)c1cnc(-c2ccco2)nc1`: the values for the pEC50 in the test with A2780 and in the test on MCF7 were 5.82 and under 5.00, respectively. Take `O=C(Nc1ccc(-c2ccncc2)cn1)c1cncnc1`: the pEC50 in the test with A2780 was 5.33; in the test on MCF7, under 5.00. Consider `Cc1nc(NC(=O)c2ccc(N3CCCCC3)c([N+](=O)[O-])c2)ccc1I`, for which the inhibition at 1 µM in the test with MDCK-II worked out at 29.4%.

Consider `O=C(Nc1ccc(-c2ccccc2)cn1)c1cnc2cccnc2c1`, for which the inhibition at 1 µM in the test with MDCK-II came out at 181%. As to `Cc1nc(NC(=O)c2cncc([N+](=O)[O-])c2)cnc1Br`, the inhibition at 1 µM in the test with MDCK-II was -26%. As for `Cc1cc(NC(=O)c2ccc(C)c([N+](=O)[O-])c2)c(C)cc1I`, the inhibition at 1 µM in the test with MDCK-II amounted to 46.9%. Turning to `Cc1nc(NC(=O)c2cncnc2)cnc1Br`, the inhibition at 1 µM with MDCK-II was -42%.

Turning to `Cc1nc(NC(=O)c2cccc(C(F)(F)F)c2)ccc1Cl`, the inhibition at 1 µM in the test with MDCK-II is -13%. Take `O=C(Nc1ccc(-c2ccccc2)cn1)c1nccs1`: the inhibition at 1 µM in the test with MDCK-II is -13%. Take `O=C(Nc1ccc(-c2ccccc2)cn1)c1cccc([N+](=O)[O-])c1`: the inhibition at 1 µM in the test on MDCK-II stood at 29%. For `Cc1nc(NC(=O)c2cnc3cccnc3c2)ccc1Cl`, the inhibition at 1 µM in the test on MDCK-II was found to be 12%.

`O=C(Nc1ccc2ccccc2n1)c1cnco1`: in the test with MDCK-II, the inhibition at 1 µM is -58%. Still for that read-out and setting: the result for `Cc1nc(NC(=O)c2nccs2)cnc1Br` reads -36%. `Cc1nc(NC(=O)c2nccs2)ccc1Cl`: the inhibition at 1 µM in the test with MDCK-II is -28%. Consider `Cc1nc(NC(=O)c2cnco2)cnc1Br`, for which the inhibition at 1 µM with MDCK-II was -21%. For the compound `Cc1nc(NC(=O)c2cc([N+](=O)[O-])ccc2N2CCOCC2)ccc1I`, in the test with MDCK-II, the inhibition at 1 µM worked out at 31.7%. On the same count and under the same terms, then `Cc1nc(NC(=O)c2ccc(N3CCCC3)c([N+](=O)[O-])c2)ccc1I`, with 44%; and `O=C(Nc1ccccn1)c1cccc([N+](=O)[O-])c1`, with 45.3%.

For the compound `O=C(Nc1ncc[nH]1)c1nccs1`, the inhibition at 1 µM with MDCK-II was -67%.

For `Cc1nc(NC(=O)c2cnc3cccnc3c2)ccc1I`, in the test with MDCK-II, the inhibition at 1 µM is 33%.

On to `Cc1nc(NC(=O)c2nccs2)ccc1I`, for which the inhibition at 1 µM with MDCK-II was -20%. Take `O=C(Nc1cscn1)c1cnco1`: the inhibition at 1 µM in the test with MDCK-II is -54%. As to `O=C(Nc1ccc(-c2ccccc2)cn1)c1cccc(C(F)(F)F)c1`, the inhibition at 1 µM in the test with MDCK-II is -2%.

As for `O=C(Nc1ncc[nH]1)c1cccc(C(F)(F)F)c1`, in the test on MDCK-II, the inhibition at 1 µM was -72%. As to `O=C(Nc1ncc(Br)cc1Br)c1cccc([N+](=O)[O-])c1`, the inhibition at 1 µM in the test with MDCK-II stood at 42.4%. `O=C(Nc1cscn1)c1cccc(C(F)(F)F)c1`: the inhibition at 1 µM in the test with MDCK-II is -73%. Regarding `Cc1nc(NC(=O)c2cncc([N+](=O)[O-])c2)ccc1I`, the inhibition at 1 µM in the test with MDCK-II amounted to 21%.

As to `O=C(Nc1ccc2ccccc2n1)c1nccs1`, the inhibition at 1 µM with MDCK-II is -51%. With `O=C(Nc1ccc2ccccc2n1)c1cncnc1`, the inhibition at 1 µM in the test on MDCK-II is -55%. `O=C(Nc1ncc[nH]1)c1cnco1`: in the test on MDCK-II, the inhibition at 1 µM was -50%. Turning to `O=C(Nc1ncc[nH]1)c1cccc([N+](=O)[O-])c1`, the inhibition at 1 µM in the test on MDCK-II was -77%.

Take `O=C(Nc1ccc2ccccc2n1)c1cccc([N+](=O)[O-])c1`: the inhibition at 1 µM with MDCK-II is -59%. `O=C(Nc1ccc2ccccc2n1)c1cccc(C(F)(F)F)c1`: the inhibition at 1 µM with MDCK-II is -59%.
